Values quoted from earlier work, collected in patent publication EP0353388A2, “Floor treatment product” (DYNA-5, INC., priority 1988, dated 1990).

Details: first dissociation constant of the acid

| first pK value (pK^I) | Compound |
| --- | --- |
| 1.25 | O=C(O)C(=O)O [oxalic acid] |
| 2.00 | O=C(O)CN(CCN(CC(=O)O)CC(=O)O)CC(=O)O [ethylenediaminetetraacetic acid] |
